Test results: PMC6747051, “Screening of Antiviral Components of Ma Huang Tang and Investigation on the Ephedra Alkaloids Efficacy on Influenza Virus Type A” (Frontiers in Pharmacology, 2019)
≈ marks a conversion by molar mass, not a printed value. Entries after “also recorded” stand apart in the source; their conditions may differ.

Assays:
influenza A virus [1] = assay: Antiviral activity assay in vitro with four ways of drug delivery (MTT, MDCK cells); assay type: cell-based, influenza virus A/PR8/34 (H1N1); conditions: for EC50: Influenza A virus, MDCK; for antiviral effective rate (ER): final concentration 3.91 μg/ml
influenza A virus [2] = assay: Viral load assay using real-time RT-PCR (M1 gene) and CPE in infected MDCK cells; assay type: cell-based, influenza virus A/PR8/34 (H1N1); conditions: 24 and 48 h after administration; for viral load in MDCK cells vs control infected group: each dose group, P < 0.01 or P < 0.05
[3] = tested on: IL-6, IFN-β and TNF-α levels; assay type: cell-based, canine
[4] = tested on: TLRs signaling pathway mRNA; assay type: cell-based, canine
[5] = tested on: influenza A virus (A PR/8/34); assay: HE assay of lung tissue of infected mice; assay type: in vivo, ICR mice; conditions: days 3 and 7 post-infection, 40, 20, 10 mg/kg
Experimental: (§1) A total of 108 ICR mice were randomly divided into the control uninfected group, the control infected group, oseltamivir group, LEP-treated groups and DPEP-treated groups; 12 mice were designed in each group. Except for the mice in the control uninfected group, others were anaesthetized with ethyl ether and intranasally infected with 10LD50 influenza A virus (A PR/8/34) in a volume of 50 μl PBS to induce viral pneumonia. […] Meanwhile, the control uninfected group and the control infected group were only given saline with the same volume. […] The adult daily dose was converted into the high dose of mice, which was about 40 mg/kg. Based on the high dose of the drug, the medium and low doses were set.
In the 3rd and 7th days after infection, the right lung lobes from each mouse were washed with normal saline and immediately soaked in 10% normal buffered formalin for one week. Then the samples were dehydrated with ethanol and embedded in paraffin. The 4-μm-thick lung sections were stained with HE and the pathological changes of lung tissue were observed under the light microscope.

[6] = tested on: influenza A virus (A PR/8/34); assay: RT-PCR analysis of viral load in murine lung tissue; assay type: in vivo, ICR mice
Experimental: as §1
In the 3rd and 7th days after infection, the left lung lobes from each mouse were washed with normal saline and stored at -80°C for RT-PCR and western blot analysis use. For RT-PCR analysis, the left lung was homogenized in precooled normal saline and centrifuged at 4000 rpm for 10 min at 4 °C. Total RNA was extracted using the High Pure Viral Nucleic Acid kit and cDNA was synthesized with the PrimeScript™ RT Master Mix kit. The specific steps of RT-PCR amplification were the same as the previous section in the present study. The related primers for mouse were designed by Sangon Biotech, Co., Ltd. (Shanghai, China) and are described in Table S2 .

[7] = tested on: IL-1β, IL-6 and IL-10 in serum; assay type: in vivo, ICR mice; conditions: 3rd and 7th day after infection; for IL-10 in serum: P < 0.01; for IL-1β in serum: P < 0.01 or P < 0.05; for IL-6 in serum: P > 0.05
Experimental: as §1
In days 3 and 7 post-infection, blood samples of six mice from each group were collected from retroorbital sinus under mild ethyl ether anesthesia before they were sacrificed, then under 4 °C they were centrifuged at 3000 rpm for 20 min to obtain serum. The levels of IL-1β, IL-6 and IL-10 in murine serum were determined by ELISA kits.

[8] = tested on: TNF-α, IFN-γ, TLR3, TLR4, TLR7, MyD88, NF-κB p65 and RIG-1 mRNA; parameters: species or system ICR mice; conditions: mouse, in vivo
[9] = tested on: TLR4, TLR7, MyD88 and NF-κB p65 protein expression; parameters: species or system ICR mice; conditions: mouse, in vivo
influenza A virus [10] = conditions: dog
influenza A virus [11] = assay: microbe, parasite or virus in culture; conditions: MDCK, 48 h, read-out: Cell survival rate
[12] = drug delivery way: Blocking viruses invading host cells
[13] = drug delivery way: Directly inhibiting virus
[14] = drug delivery way: Inhibiting the biosynthesis of virus
[15] = drug delivery way: Intervening the adsorption of virus
[16] = 3rd day after infection, three doses, P < 0.01 or P < 0.05
[17] = 7th day after infection, 40 and 20 mg/kg groups, P < 0.05

SMILES | EC50 (influenza A virus [1]; [12]) [µg/mL] | EC50 (influenza A virus [1]; [13]) [µg/mL] | EC50 (influenza A virus [1]; [14]) [µg/mL] | EC50 (influenza A virus [1]; [15]) [µg/mL] | antiviral effective rate (ER) (influenza A virus [1]) | CPE of infected MDCK cells (influenza A virus [2]) | viral load in MDCK cells vs control infected group (influenza A virus [2]) | IL-6 level in cell supernatant vs control infected group [3] | level of IFN-β in cell supernatant vs control infected group [3] | secretion of TNF-α vs control infected group [3] | mRNA expression levels of TLR7, NF-κB p65, TLR3 and IRF3 [4] | mRNA expression of IFN-β [4] | histopathological responses of lung tissue [5] | viral load in lung tissue vs control infected group [6, 16] | viral load in lung tissue vs control infected group [6, 17] | IL-10 in serum [7] | IL-1β in serum [7] | IL-6 in serum [7] | mRNA expression levels of TLR3, TLR4, TLR7, MyD88, NF-κB p65 and RIG-1 in lung tissue [8] | mRNA expression of IFN-γ in lung tissue [8] | other results
CN[C@@H](C)[C@H](O)c1ccccc1 [LEP, L-ephedrine] | 11 (≈ 66.3 µM) | 6.28 (≈ 38 µM) | 5.66 (≈ 34.3 µM) | 7.15 (≈ 43.3 µM) | > 36.00% | significantly reduce the CPE | significantly decreased | significantly higher than that in the control infected group | significantly increase; also recorded: increased | significantly inhibited the secretion of TNF-α | significantly reduced | significantly increased | attenuated the inflammation | significantly decreased | significantly reduced | accelerated the production of IL-10 | dramatically inhibited the production of IL-1β | slightly increased | obviously inhibited | significantly promoted | mRNA expression levels of TLR4 and TRAF3 [4]: inhibited; mRNA expression of MyD88 and TRAF6 [4]: marked decreased; mRNA expression of TLR4 and MyD88 [4]: significantly inhibited; mRNA expression of TRAF6 and TRAF3 [4]: decreased; mRNA expression of TNF-α in lung tissue [8]: markedly inhibited; inhibition effect on protein expression of TLR4 and TLR7 in lung tissue [9]: not obvious; protein expression levels of MyD88 and NF-κB p65 in lung tissue [9]: significantly down-regulated; protein expression levels of TLR4 and TLR7 in lung tissue [9]: Decreased; protein expression of TLR4, TLR7 and NF-κB p65 in comparison to oseltamivir [9]: dramatically inhibit; cell viability rate (influenza A virus [10]): ≥ 70%; viability at 0.49 µg/mL (influenza A virus [11]): 42.6%; viability at 0.98 µg/mL (influenza A virus [11]): 51.6%; viability at 1.95 µg/mL (influenza A virus [11]): 57.8%; viability at 3.91 µg/mL (influenza A virus [11]): 61.5%; viability at 7.81 µg/mL (influenza A virus [11]): 67.2%
CN[C@@H](C)[C@@H](O)c1ccccc1 [DPEP, D-pseudoephedrine] | 8.17 (≈ 49.4 µM) | 6.04 (≈ 36.6 µM) | 4.67 (≈ 28.3 µM) | 7.57 (≈ 45.8 µM) | more than 38.00% | significantly reduce the CPE | significantly decreased | significantly higher than that in the control infected group | significantly increase; also recorded: increased | significantly inhibited the secretion of TNF-α | significantly reduced | significantly increased | attenuated the inflammation | significantly decreased | significantly reduced | accelerated the production of IL-10 | dramatically inhibited the production of IL-1β | slightly increased | obviously inhibited | significantly promoted | IFN-β mRNA expression compared with the oseltamivir group [4]: significantly increased; mRNA expression levels of MyD88, TRAF6 and TRAF3 [4]: obvious decreased; mRNA expression levels of NF-κB p65, TRAF3 and IRF3 compared with the oseltamivir group [4]: significantly reduced; mRNA expression levels of TRAF6 and TLR4 [4]: reduced; mRNA expression of MyD88 and TRAF3 [4]: significant decreased; mRNA expression of TLR4 [4]: significant decreased; mRNA expression of TNF-α in lung tissue [8]: markedly inhibited; inhibition effect on protein expression of TLR4 and TLR7 in lung tissue [9]: not obvious; protein expression levels of MyD88 and NF-κB p65 in lung tissue [9]: significantly down-regulated; protein expression levels of TLR4 and TLR7 in lung tissue [9]: Decreased; protein expression of TLR4, TLR7 and NF-κB p65 in comparison to oseltamivir [9]: dramatically inhibit; cell viability rate (influenza A virus [10]): ≥ 70%; viability at 0.49 µg/mL (influenza A virus [11]): 45.3%; viability at 0.98 µg/mL (influenza A virus [11]): 54.7%; viability at 1.95 µg/mL (influenza A virus [11]): 61.2%; viability at 3.91 µg/mL (influenza A virus [11]): 63.9%; viability at 7.81 µg/mL (influenza A virus [11]): 72.5%
